How the values were obtained:
Ba/F3 ERBB2-T798M = Ba/F3 ERBB2-T798M (Homo sapiens, UniProt P04626, T798M, cells depend on it); assay: Cell viability assay, Ba/F3 ERBB2-T798M; assay type: cell-based, mouse; settings: 72 hours, CellTiter Glo, read-out: IC50, cell viability, Ba/F3 ERBB2-T798M
Method: (§1) Cells were treated with compounds, and cell viability was measured as a metric of kinase inhibition.
(§2) The Ba/F3 cell line is IL-3-dependent mouse cell line derived from the C3H mouse strain. Ba/F3 cell lines were engineered to express human ERBB2 or EGFR kinases, rendering the cells IL-3 independent. The lines were generated via retroviral transduction utilizing a Moloney murine leukemia virus (MMLV) promoter, and constructs are stably integrated into the cell genome. The sequences of the ERBB2 and EGFR genes used were NCBI Reference Sequences NM_004448.3 and NM_005228.3, respectively.
(§3) Similarly, Ba/F3 cell lines engineered to express EGFR, ERBB2, or ERBB2 mutants were grown, harvested, counted and seeded at 3000 cells per well in 96-well plates. A subset of wells contained media only (low control, “LC”).
(§4) Table B1 provides the growth media and number of cells seeded per well for the each cell line.
(§5) Plates were placed in a 37° C., 5% CO2 incubator for 72 hours. Plates were then removed from the incubator and equilibrated for 15 minutes at room temperature. 40 μl of CellTiter Glo reagent (Promega) was added to measure the relative level of metabolically active cells by quantifying intracellular ATP concentrations. Plates were incubated for 30 minutes at room temperature, and luminescence was measured. Percent viability was normalized to a vehicle control only using the following formula: % viability=100×(Lumsample−LumLC)/(LumHC−Lum^LC). Graphical curves were fitted using a nonlinear regression model with a sigmoidal dose response.

[1] = biological target: T1, phosphorylated EGFR (pEGFR) (Homo sapiens, UniProt P00533); assay: Detection of phosphorylated EGFR (pEGFR) in EGF-stimulated A431 cells; assay type: cell-based; settings: A431 cells (10% FBS), 4 hours incubation, EGF 30 ng/mL 10 minutes, AlphaLISA
T1 construct: performed to measure phosphorylated EGFR levels using A431 cells (10% FBS); endogenous in cells; host or cells: A431
How it was run: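 A431 cells in 10% FBS were preincubated with compound for 4 h at 37 °C, then stimulated with EGF (30 ng/mL final) for 10 min. pEGFR in lysates was read by AlphaLISA. % inhibition was calculated against DMSO and staurosporine-treated controls, and IC50 came from a four-parameter curve fit.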

[2] = biological target: Ba/F3 ERBB2 A775_G776insYVMA (Homo sapiens, UniProt P04626, DUP772-775, cells depend on it); assay: Cell viability assay, Ba/F3 ERBB2 A775_G776insYVMA; assay type: cell-based, mouse; settings: Ba/F3 ERBB2 A775_G776insYVMA cells, 72 hours, CellTiter Glo; Tables B2-B4; read-out: IC50, cell viability, Ba/F3 ERBB2 A775_G776insYVMA
How it was run: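 IL-3-independent Ba/F3 lines stably expressing the human ERBB2 insertion mutants were seeded at 3000 cells/well and exposed to compounds for 72 h at 37 °C, 5% CO2. Viability was read as ATP by CellTiter-Glo luminescence. Curves were fitted by sigmoidal nonlinear regression.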

Ba/F3 ERBB2 wt = Ba/F3 ERBB2 wt (Homo sapiens, UniProt P04626); assay: Cell viability assay, Ba/F3 ERBB2 wt; assay type: cell-based, mouse; settings: Ba/F3 ERBB2 wt cells, 72 hours, CellTiter Glo; read-out: IC50, cell viability, Ba/F3 ERBB2 wt
Method: as §1, §2, §3, §4, §5

[3] = biological target: Ba/F3 ERBB2-P780_Y781insGSP (Homo sapiens, UniProt P04626, DUP778-780, cells depend on it); assay: Cell viability assay, Ba/F3 ERBB2-P780_Y781insGSP; assay type: cell-based, mouse; settings: 72 hours, CellTiter Glo, read-out: IC50, cell viability, Ba/F3 ERBB2-P780_Y781insGSP
Method: as §1, §2, §3, §4
as §5, with “Percent viability was normalized to a vehicle control only using the following formula: % viability=100×(Lumsample−LumLC)/(LumHC−Lum^LC).” left out

Ba/F3 ERBB2-L755S = Ba/F3 ERBB2-L755S (Homo sapiens, UniProt P04626, L755S, cells depend on it); assay: Cell viability assay, Ba/F3 ERBB2-L755S; assay type: cell-based, mouse; settings: 72 hours, CellTiter Glo, read-out: IC50, cell viability, Ba/F3 ERBB2-L755S
Sequence of Ba/F3 ERBB2-L755S (P04626 whole entry L755S): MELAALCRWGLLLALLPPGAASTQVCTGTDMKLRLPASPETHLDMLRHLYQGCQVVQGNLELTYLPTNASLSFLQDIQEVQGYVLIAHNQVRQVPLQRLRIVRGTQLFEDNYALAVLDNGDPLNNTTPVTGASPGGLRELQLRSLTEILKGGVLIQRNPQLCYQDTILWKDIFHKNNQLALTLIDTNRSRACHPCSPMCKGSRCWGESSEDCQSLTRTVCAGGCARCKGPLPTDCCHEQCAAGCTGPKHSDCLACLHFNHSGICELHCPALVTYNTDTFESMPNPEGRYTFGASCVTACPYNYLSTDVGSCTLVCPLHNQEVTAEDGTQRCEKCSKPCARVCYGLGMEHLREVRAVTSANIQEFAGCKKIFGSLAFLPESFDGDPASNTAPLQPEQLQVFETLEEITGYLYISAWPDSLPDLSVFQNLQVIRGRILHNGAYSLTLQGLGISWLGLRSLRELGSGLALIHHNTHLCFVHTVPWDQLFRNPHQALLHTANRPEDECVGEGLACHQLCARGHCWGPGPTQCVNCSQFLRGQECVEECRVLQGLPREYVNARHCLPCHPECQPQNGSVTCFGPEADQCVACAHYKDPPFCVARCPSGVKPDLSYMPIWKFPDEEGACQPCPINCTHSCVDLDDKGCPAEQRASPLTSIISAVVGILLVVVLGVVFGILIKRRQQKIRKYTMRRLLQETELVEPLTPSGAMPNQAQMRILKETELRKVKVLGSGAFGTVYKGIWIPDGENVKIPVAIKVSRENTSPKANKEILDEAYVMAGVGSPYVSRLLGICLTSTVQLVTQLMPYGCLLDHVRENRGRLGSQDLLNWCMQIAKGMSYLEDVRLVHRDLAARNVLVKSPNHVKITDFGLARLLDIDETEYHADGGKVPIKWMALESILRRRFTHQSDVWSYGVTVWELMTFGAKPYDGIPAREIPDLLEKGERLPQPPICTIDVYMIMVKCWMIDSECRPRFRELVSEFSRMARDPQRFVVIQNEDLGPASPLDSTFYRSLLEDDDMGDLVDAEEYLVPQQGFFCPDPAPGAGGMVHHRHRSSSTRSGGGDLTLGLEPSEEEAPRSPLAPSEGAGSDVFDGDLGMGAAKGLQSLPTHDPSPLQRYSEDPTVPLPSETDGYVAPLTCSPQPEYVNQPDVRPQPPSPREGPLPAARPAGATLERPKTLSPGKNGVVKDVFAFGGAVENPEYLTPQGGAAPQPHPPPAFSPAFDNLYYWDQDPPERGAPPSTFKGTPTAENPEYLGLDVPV
Method: as §1, §2, §3, §4, §5

Ba/F3 ERBB2-G776VC = Ba/F3 ERBB2-G776VC (Homo sapiens, UniProt P04626, DELINS776-776VC, cells depend on it); assay: Cell viability assay, Ba/F3 ERBB2-G776VC; assay type: cell-based, mouse; settings: 72 hours, CellTiter Glo, read-out: IC50, cell viability, Ba/F3 ERBB2-G776VC
Method: as §1, §2, §3, §4, §5

Ba/F3 ERBB2-L869R = Ba/F3 ERBB2-L869R (Homo sapiens, UniProt P04626, L869R, cells depend on it); assay: Cell viability assay, Ba/F3 ERBB2-L869R; assay type: cell-based, mouse; settings: 72 hours, CellTiter Glo, read-out: IC50, cell viability, Ba/F3 ERBB2-L869R
Sequence of Ba/F3 ERBB2-L869R (P04626 whole entry L869R): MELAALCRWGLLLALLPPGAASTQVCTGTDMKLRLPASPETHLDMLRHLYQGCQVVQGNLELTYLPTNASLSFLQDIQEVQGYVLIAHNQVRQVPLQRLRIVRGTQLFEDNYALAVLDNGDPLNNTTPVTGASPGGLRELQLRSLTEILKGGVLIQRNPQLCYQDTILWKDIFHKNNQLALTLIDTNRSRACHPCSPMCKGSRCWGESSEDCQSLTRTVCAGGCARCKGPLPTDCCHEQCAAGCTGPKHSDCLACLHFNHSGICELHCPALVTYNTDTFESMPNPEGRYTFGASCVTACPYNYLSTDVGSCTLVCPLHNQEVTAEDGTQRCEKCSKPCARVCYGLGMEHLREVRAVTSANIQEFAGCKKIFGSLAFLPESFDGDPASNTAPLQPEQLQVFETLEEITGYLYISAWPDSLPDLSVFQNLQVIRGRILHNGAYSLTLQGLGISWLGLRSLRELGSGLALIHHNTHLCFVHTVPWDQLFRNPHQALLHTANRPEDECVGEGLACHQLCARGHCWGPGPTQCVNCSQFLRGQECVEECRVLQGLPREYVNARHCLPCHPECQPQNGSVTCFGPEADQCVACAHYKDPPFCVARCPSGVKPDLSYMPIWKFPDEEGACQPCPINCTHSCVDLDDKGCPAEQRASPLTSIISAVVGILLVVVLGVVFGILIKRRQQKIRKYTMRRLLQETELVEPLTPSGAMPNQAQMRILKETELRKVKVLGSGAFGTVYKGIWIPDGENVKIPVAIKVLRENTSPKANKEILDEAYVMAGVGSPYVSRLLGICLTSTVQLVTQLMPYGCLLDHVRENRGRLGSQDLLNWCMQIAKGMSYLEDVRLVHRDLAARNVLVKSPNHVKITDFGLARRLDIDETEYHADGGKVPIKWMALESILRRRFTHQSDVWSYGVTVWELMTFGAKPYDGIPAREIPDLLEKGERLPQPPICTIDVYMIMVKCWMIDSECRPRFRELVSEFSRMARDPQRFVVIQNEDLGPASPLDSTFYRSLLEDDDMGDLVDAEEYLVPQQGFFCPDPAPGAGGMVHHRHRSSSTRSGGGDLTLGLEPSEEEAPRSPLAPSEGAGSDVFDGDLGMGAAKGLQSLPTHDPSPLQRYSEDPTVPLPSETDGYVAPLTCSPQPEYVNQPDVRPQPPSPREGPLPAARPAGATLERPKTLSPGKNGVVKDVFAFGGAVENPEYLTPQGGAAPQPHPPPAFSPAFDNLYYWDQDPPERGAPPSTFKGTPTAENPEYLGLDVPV
Method: as §1, §2, §3, §4, §5

[4] = biological target: Ba/F3 ERBB2-V777_G778insGC (Homo sapiens, UniProt P04626, INS778CG, cells depend on it); assay: Cell viability assay, Ba/F3 ERBB2-V777_G778insGC; assay type: cell-based, mouse; settings: 72 hours, CellTiter Glo, read-out: IC50, cell viability, Ba/F3 ERBB2-V777_G778insGC
Sequence of Ba/F3 ERBB2-V777_G778insGC (P04626 with tags, fused parts or gaps INS778CG): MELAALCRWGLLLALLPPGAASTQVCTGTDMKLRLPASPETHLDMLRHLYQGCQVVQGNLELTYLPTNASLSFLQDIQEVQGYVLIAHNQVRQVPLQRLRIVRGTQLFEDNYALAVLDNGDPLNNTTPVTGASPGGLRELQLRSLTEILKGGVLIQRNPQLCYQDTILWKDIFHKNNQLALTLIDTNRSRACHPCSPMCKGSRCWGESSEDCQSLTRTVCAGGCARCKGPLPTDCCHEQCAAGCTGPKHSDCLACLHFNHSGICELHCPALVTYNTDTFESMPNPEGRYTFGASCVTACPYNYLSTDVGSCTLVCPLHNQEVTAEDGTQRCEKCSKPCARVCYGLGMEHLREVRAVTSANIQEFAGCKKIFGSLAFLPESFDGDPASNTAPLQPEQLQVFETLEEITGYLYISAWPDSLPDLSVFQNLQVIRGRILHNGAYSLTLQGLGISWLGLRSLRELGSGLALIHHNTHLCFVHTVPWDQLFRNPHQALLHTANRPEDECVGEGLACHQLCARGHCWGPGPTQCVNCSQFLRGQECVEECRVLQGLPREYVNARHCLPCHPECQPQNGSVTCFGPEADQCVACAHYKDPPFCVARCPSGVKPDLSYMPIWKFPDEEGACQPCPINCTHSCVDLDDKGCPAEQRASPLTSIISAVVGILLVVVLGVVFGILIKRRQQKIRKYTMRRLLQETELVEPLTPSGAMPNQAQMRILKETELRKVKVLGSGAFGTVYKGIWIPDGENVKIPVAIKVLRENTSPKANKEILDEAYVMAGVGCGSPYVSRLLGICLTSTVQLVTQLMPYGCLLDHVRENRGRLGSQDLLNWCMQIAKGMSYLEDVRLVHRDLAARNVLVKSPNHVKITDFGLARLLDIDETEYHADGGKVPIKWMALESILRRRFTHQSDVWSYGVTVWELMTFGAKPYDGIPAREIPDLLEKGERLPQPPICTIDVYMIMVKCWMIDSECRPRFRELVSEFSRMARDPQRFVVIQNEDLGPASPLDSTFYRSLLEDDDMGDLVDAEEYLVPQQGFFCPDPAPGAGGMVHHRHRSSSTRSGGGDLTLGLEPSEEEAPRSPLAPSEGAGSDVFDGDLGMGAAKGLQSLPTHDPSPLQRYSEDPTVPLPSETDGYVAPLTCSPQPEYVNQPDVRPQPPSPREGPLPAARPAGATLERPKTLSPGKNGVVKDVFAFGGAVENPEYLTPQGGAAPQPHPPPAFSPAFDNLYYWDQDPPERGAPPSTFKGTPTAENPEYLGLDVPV
Method: as §1, §2, §3, §4, §5

A431 = assay: Cell viability assay (CellTiter Glo), A431; assay type: cell-based; settings: Homo sapiens, A-431, A431 cells, 72 hours

Sequence of Ba/F3 ERBB2-T798M (P04626 whole entry T798M): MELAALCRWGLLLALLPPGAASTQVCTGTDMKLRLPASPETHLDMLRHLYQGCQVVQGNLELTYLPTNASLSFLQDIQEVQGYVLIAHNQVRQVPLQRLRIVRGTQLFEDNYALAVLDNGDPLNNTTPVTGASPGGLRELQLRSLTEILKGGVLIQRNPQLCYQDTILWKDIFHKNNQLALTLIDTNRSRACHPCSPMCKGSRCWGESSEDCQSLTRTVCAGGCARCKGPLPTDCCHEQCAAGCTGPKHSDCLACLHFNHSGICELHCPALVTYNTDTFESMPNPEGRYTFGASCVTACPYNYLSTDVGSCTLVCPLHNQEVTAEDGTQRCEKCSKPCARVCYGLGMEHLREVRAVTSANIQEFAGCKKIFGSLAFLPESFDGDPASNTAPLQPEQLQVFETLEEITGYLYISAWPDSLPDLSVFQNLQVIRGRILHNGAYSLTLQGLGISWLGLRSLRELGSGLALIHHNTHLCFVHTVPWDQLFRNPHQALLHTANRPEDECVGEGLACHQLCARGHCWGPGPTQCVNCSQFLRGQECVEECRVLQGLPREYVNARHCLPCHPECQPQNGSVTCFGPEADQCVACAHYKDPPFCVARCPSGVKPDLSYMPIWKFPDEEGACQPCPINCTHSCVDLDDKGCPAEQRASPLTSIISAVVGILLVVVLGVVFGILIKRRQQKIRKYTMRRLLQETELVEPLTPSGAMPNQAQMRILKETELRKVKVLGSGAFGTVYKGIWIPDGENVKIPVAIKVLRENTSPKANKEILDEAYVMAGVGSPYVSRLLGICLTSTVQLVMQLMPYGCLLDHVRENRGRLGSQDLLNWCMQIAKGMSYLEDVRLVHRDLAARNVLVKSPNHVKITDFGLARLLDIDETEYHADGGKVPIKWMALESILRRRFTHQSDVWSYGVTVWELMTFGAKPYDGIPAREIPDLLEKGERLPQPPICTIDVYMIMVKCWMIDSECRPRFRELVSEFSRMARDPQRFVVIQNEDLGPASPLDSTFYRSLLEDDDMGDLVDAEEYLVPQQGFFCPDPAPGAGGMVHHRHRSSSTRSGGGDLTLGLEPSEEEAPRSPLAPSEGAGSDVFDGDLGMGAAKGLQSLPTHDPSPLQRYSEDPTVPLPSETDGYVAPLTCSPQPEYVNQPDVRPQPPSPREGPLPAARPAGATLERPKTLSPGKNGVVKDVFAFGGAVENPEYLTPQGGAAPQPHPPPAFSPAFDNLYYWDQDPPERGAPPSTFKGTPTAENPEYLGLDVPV

Row | SMILES | GI50 (Ba/F3 ERBB2-T798M) | IC50 [1] | GI50 [2] | GI50 (Ba/F3 ERBB2 wt) | GI50 [3] | GI50 (Ba/F3 ERBB2-L755S) | GI50 (Ba/F3 ERBB2-G776VC) | GI50 (Ba/F3 ERBB2-L869R) | GI50 [4] | IC50 (A431)
1 | C=C1CCN(c2ccc3ncnc(Nc4ccc(Oc5ccn6ncnc6c5)c(C)c4)c3c2)C1=O [Compound 1, 1-[4-[(3-methyl-4-[[1,2,4]triazolo[1,5-a]pyridin-7-yloxy]phenyl)amino]quinazolin-6-yl]-3-methylidenepyrrolidin-2-one] | 151 nM | 1230 nM | 28 nM | 2.3 nM | 3.4 nM | 13 nM | 16 nM | 3.6 nM | 0.82 nM | 5800 nM
2 | C=C1CCN(c2ccc3ncnc(Nc4ccc(Oc5ccn6ccnc6c5)c(C)c4)c3c2)C1=O [Compound 4, 1-[4-[(4-[imidazo[1,2-a]pyridin-7-yloxy]-3-methylphenyl)amino]quinazolin-6-yl]-3-methylidenepyrrolidin-2-one] | 154 nM | 205 nM | 16 nM | 3.9 nM | 2.6 nM | 14 nM | 7.5 nM | 4.8 nM | 1.8 nM | 1280 nM

From patent US20240116921A1, “LACTAM (HETERO)[…] DERIVATIVES AS INHIBITORS OF ERBB2” (EnLiven Therapeutics, Inc., priority 2020, published 2024)
